Measurements reported in US20090069302A1 (SMITHKLINE BEECHAM CORPORATION, priority 2006, published 2009).
pEC50: −log10 of the molar value.

Biological target: T1, AXOR109 (Homo sapiens, UniProt Q8TDU6)
T1 construct: expressed in transfected cells; host or cells: melanophore cells, transfected by electroporation
T1 sequence (Q8TDU6 1-330): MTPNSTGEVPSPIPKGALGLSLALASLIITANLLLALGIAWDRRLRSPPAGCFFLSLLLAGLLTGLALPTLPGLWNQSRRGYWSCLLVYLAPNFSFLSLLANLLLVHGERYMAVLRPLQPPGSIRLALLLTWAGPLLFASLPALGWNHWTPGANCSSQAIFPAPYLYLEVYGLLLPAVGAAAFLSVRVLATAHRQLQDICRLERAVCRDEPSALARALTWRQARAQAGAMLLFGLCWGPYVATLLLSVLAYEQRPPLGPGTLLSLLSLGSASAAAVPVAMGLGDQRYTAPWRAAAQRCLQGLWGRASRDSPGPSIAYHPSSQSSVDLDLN
Assay: Human AXOR109/Melanophore Assay
Type: cell-based
Settings: melanophore assay; for Emax: 1 h, normalized to alpha-MSH system max; for pEC50: AXOR109 transfected melanophores
Procedure: AXOR109 is a Gs-coupled receptor and therefore increases intracellular cAMP leading to melanosome dispersion. Compounds of the present invention were characterized in a melanophore assay as described in Jayawickreme C K, et al., Current Protocols in Pharmacology (2005) 12.9.1-12.9.16. Briefly, melanophore cells are transfected by electroporation with AXOR109 expressing cDNA. Cells are then plated in 384 well clear bottom plates at 8E3 cells per well in 50 μl of conditioned fibroblast media (CFM). Compounds to be tested are serially diluted 3-fold in DMSO and further diluted 1:100 with melanophore assay buffer (MAB)+10 nM Melatonin to yield 11 point concentration response curves. Following 2 hour incubation with MAB+1% DMSO+10 nM Melatonin, initial transmittance is read on a TwisterII/Spectramax plate reader. Compounds are then added to the cells and incubated for 1 hour, and final transmittance is read as before. Results are compared to vehicle (MAB+1% DMSO+10 nM Melatonin) and to a positive control (MAB+1% DMSO+10 nM Melatonin+200 nM alpha-MSH). Data are calculated for each well as follows: 1-(Transmitance-final/Transmitance-initial). Each well result is then normalized to alpha-MSH, the system max control for Gs/Gq coupled receptors using the following equation: (ObjX−Control1)/(Control2−Control1)*100. The percent system max is used to generate the pEC50 using the equation: y=((Vmax*x̂n)/(K̂n+x̂n))+Y2. Acceptable Z-prime values should be >0.4. Compounds of the present invention have a pEC50≧5.0 in the above described assay.

COc1ccc(S(=O)(=O)N2CCC(N(CC(C)C)S(=O)(=O)c3ccc(OC)c(OC)c3)C2)cc1OC (stereo not shown) [Example 57, N-(1-{[3,4-bis(methyloxy)phenyl]sulfonyl}-3-pyrrolidinyl)-3,4-bis(methyloxy)-N-(2-methylpropyl)benzenesulfonamide]
Emax: 51 to 75%
pEC50: 5.00 to 5.90

COc1ccc(S(=O)(=O)N(C)C[C@H]2CCCN2S(=O)(=O)c2ccc(OC)c(OC)c2)cc1OC [Example 97, N-[((2R)-1-{[3,4-bis(methyloxy)phenyl]sulfonyl}-2-pyrrolidinyl)methyl]-N-methyl-3,4-bis(methyloxy)benzenesulfonamide]
Emax: 76 to 100%
pEC50: > 6.90

COc1ccc(S(=O)(=O)N(C)CC(C)N(C)S(=O)(=O)c2ccc(OC)c(OC)c2)cc1OC (stereo not shown) [Example 44, N,N′-1,2-propanediylbis[N-methyl-3,4-bis(methyloxy)benzenesulfonamide]]
Emax: 51 to 75%
pEC50: 6.00 to 6.90

COc1ccc(S(=O)(=O)NCCN(C)S(=O)(=O)c2ccc(OC)c(OC)c2)cc1OC [Example 42, N-[2-({[3,4-bis(methyloxy)phenyl]sulfonyl}amino)ethyl]-N-methyl-3,4-bis(methyloxy)benzenesulfonamide]
Emax: 51 to 75%
pEC50: 5.00 to 5.90

COc1ccc(S(=O)(=O)N(C)C(C)C(C)N(C)S(=O)(=O)c2ccc(OC)c(OC)c2)cc1OC (stereo not shown) [Example 55, N,N′-2,3-butanediylbis[N-methyl-3,4-bis(methyloxy)benzenesulfonamide]]
Emax: 51 to 75%
pEC50: 6.00 to 6.90

COc1ccc(S(=O)(=O)N2CCC(N(CC3CCC3)S(=O)(=O)c3ccc(OC)c(OC)c3)C2)cc1OC (stereo not shown) [Example 58, N-(1-{[3,4-bis(methyloxy)phenyl]sulfonyl}-3-pyrrolidinyl)-N-(cyclobutylmethyl)-3,4-bis(methyloxy)benzenesulfonamide]
Emax: 76 to 100%
pEC50: 5.00 to 5.90

COc1ccc(S(=O)(=O)N2CCN(S(=O)(=O)c3ccc(OC)c(OC)c3)CC2)cc1OC [Example 4, 1,4-bis{[3,4-bis(methyloxy)phenyl]sulfonyl}piperazine]
Emax: 51 to 75%
pEC50: 5.00 to 5.90

COc1ccc(S(=O)(=O)N2CCN(S(=O)(=O)c3ccc(C)cc3OC)CC2)cc1OC [Example 3, 1-{[3,4-bis(methyloxy)phenyl]sulfonyl}-4-{[4-methyl-2-(methyloxy)phenyl]sulfonyl}piperazine]
Emax: 51 to 75%
pEC50: 5.00 to 5.90

CCCN(C[C@@H]1CCCN1S(=O)(=O)c1ccc(OC)c(OC)c1)S(=O)(=O)c1ccc(OC)c(OC)c1 [Example 96, N-[((2S)-1-{[3,4-bis(methyloxy)phenyl]sulfonyl}-2-pyrrolidinyl)methyl]-3,4-bis(methyloxy)-N-propylbenzenesulfonamide]
Emax: 76 to 100%
pEC50: 6.00 to 6.90

COc1cccc(S(=O)(=O)N2C[C@@H](C)N(S(=O)(=O)c3ccc(OC)c(OC)c3)[C@@H](C)C2)c1 [Example 33, 1-{[3,4-bis(methyloxy)phenyl]sulfonyl}-2,6-cis-dimethyl-4-{[3-(methyloxy)phenyl]sulfonyl}piperazine]
Emax: 51 to 75%
pEC50: 5.00 to 5.90

COc1ccc(S(=O)(=O)N2CCC(=O)N(S(=O)(=O)c3ccc(OC)c(OC)c3)CC2)cc1OC [Example 28, 1,4-bis{[3,4-bis(methyloxy)phenyl]sulfonyl}hexahydro-5H-1,4-diazepin-5-one]
Emax: 51 to 75%
pEC50: 6.00 to 6.90

COc1ccc(S(=O)(=O)N2CCN(S(=O)(=O)c3ccc4c(c3)OCCO4)CC2)cc1OC [Example 78, 1-{[3,4-bis(methyloxy)phenyl]sulfonyl}-4-(2,3-dihydro-1,4-benzodioxin-6-ylsulfonyl)piperazine]
Emax: 51 to 75%
pEC50: 5.00 to 5.90

COc1ccc(S(=O)(=O)N2CC(C)N(S(=O)(=O)c3ccc(OC)c(OC)c3)CC2C)cc1OC (stereo not shown) [Example 18, 1,4-bis{[3,4-bis(methyloxy)phenyl]sulfonyl}-2,5-dimethylpiperazine]
Emax: 51 to 75%
pEC50: > 6.90

CC=CCN(CCN(C)S(=O)(=O)c1ccc(OC)c(OC)c1)S(=O)(=O)c1ccc(OC)c(OC)c1 [Example 75, N-{2-[{[3,4-bis(methyloxy)phenyl]sulfonyl}(2-buten-1-yl)amino]ethyl}-N-methyl-3,4-bis(methyloxy)benzenesulfonamide]
Emax: 76 to 100%
pEC50: 6.00 to 6.90

CCN(CCN(C1CC1)S(=O)(=O)c1ccc(OC)c(OC)c1)S(=O)(=O)c1ccc(OC)c(OC)c1 [Example 90]
Emax: 51 to 75%
pEC50: 6.00 to 6.90

CCCN(C[C@H]1CCCN1S(=O)(=O)c1ccc(OC)c(OC)c1)S(=O)(=O)c1ccc(OC)c(OC)c1 [Example 99, N-[((2R)-1-{[3,4-bis(methyloxy)phenyl]sulfonyl}-2-pyrrolidinyl)methyl]-3,4-bis(methyloxy)-N-propylbenzenesulfonamide]
Emax: 76 to 100%
pEC50: > 6.90

COc1ccc(S(=O)(=O)N(C)CCN(C)S(=O)(=O)c2ccc(OC)c(OC)c2)cc1 [Example 15, N-methyl-N-[2-(methyl{[4-(methyloxy)phenyl]sulfonyl}amino)ethyl]-3,4-bis(methyloxy)benzenesulfonamide]
Emax: 76 to 100%
pEC50: 6.00 to 6.90

COc1ccc(S(=O)(=O)N(C)CCN(C)S(=O)(=O)c2ccc3c(c2)OCCN3C)cc1OC [Example 12, N-methyl-N-{2-[{[3,4-bis(methyloxy)phenyl]sulfonyl}(methyl)amino]ethyl}-4-methyl-3,4-dihydro-2H-1,4-benzoxazine-7-sulfonamide]
Emax: 76 to 100%
pEC50: 5.00 to 5.90

CCC1CN(S(=O)(=O)c2ccc(OC)c(OC)c2)C(C)CN1S(=O)(=O)c1ccc(OC)c(OC)c1 (stereo not shown) [Example 46, 1,4-bis{[3,4-bis(methyloxy)phenyl]sulfonyl}-2-ethyl-5-methylpiperazine]
Emax: 51 to 75%
pEC50: 5.00 to 5.90

CCCN(C1CCN(S(=O)(=O)c2ccc(OC)c(OC)c2)C1)S(=O)(=O)c1ccc(OC)c(OC)c1 (stereo not shown) [Example 56, N-(1-{[3,4-bis(methyloxy)phenyl]sulfonyl}-3-pyrrolidinyl)-3,4-bis(methyloxy)-N-propylbenzenesulfonamide]
Emax: 0 to 50%
pEC50: 6.00 to 6.90

CCc1cc(S(=O)(=O)N(C)CCN(C)S(=O)(=O)c2ccc(OC)c(OC)c2)ccc1OC [Example 43, N-{2-[{[3,4-bis(methyloxy)phenyl]sulfonyl}(methyl)amino]ethyl}-N-methyl-3-ethyl-4-(methyloxy)benzenesulfonamide]
Emax: 0 to 50%
pEC50: 6.00 to 6.90

COc1ccc(S(=O)(=O)N2CCN(S(=O)(=O)c3ccc(OC)c(OC)c3)CC(F)(F)C2)cc1OC [Example 53, 1,4-bis{[3,4-bis(methyloxy)phenyl]sulfonyl}-6,6-difluorohexahydro-1H-1,4-diazepine]
Emax: 51 to 75%
pEC50: 6.00 to 6.90

COc1ccc(S(=O)(=O)NC2CCCCN(S(=O)(=O)c3ccc(OC)c(OC)c3)C2)cc1OC (stereo not shown) [Example 25, N-(1-{[3,4-bis(methyloxy)phenyl]sulfonyl}hexahydro-1H-azepin-3-yl)-3,4-bis(methyloxy)benzenesulfonamide]
Emax: 0 to 50%
pEC50: 5.00 to 5.90

COc1ccc(S(=O)(=O)N2CCN(S(=O)(=O)c3ccc(OC)c(OC)c3)C(=O)C2=O)cc1OC [Example 27, 1,4-bis{[3,4-bis(methyloxy)phenyl]sulfonyl}-2,3-piperazinedione]
Emax: 51 to 75%
pEC50: 5.00 to 5.90

COc1ccc(S(=O)(=O)N(C)CCN(C2CC2)S(=O)(=O)c2ccc(OC)c(OC)c2)cc1OC [Example 88]
Emax: 76 to 100%
pEC50: 6.00 to 6.90

COc1ccc(S(=O)(=O)N2C[C@H](C)N(S(=O)(=O)c3ccc(OC)c(OC)c3)C[C@@H]2C)cc1 [Example 72, (2S,5S)-1-{[3,4-bis(methyloxy)phenyl]sulfonyl}-2,5-dimethyl-4-{[4-(methyloxy)phenyl]sulfonyl}piperazine]
Emax: > 100%
pEC50: 6.00 to 6.90

COc1ccc(S(=O)(=O)N2CC[C@@H](N(C)S(=O)(=O)c3ccc(OC)c(OC)c3)C2)cc1OC [Example 85]
Emax: 51 to 75%
pEC50: 6.00 to 6.90

CCN(C[C@@H]1CCCN1S(=O)(=O)c1ccc(OC)c(OC)c1)S(=O)(=O)c1ccc(OC)c(OC)c1 [Example 95, N-[((2S)-1-{[3,4-bis(methyloxy)phenyl]sulfonyl}-2-pyrrolidinyl)methyl]-N-ethyl-3,4-bis(methyloxy)benzenesulfonamide]
Emax: 76 to 100%
pEC50: 6.00 to 6.90

COc1ccc(S(=O)(=O)N(CCN(C2CC2)S(=O)(=O)c2ccc(OC)c(OC)c2)C(C)C)cc1OC [Example 89]
Emax: 76 to 100%
pEC50: 6.00 to 6.90
